# Assay results reported in publication PMC8213057, “Targeting ALK2: An Open Science Approach to Developing Therapeutics for the Treatment of Diffuse Intrinsic Pontine Glioma” (Journal of Medicinal Chemistry, 2020).
# Legend:
# CDK17/cyclin Y (PCTK2) = CDK17/cyclin Y (PCTK2) (Homo sapiens, UniProt Q00537); test: biochemical; conditions: read-out: % enzyme activity, 1 μM; Run 1, Run 2
# JNK2 = JNK2 (Homo sapiens, UniProt P45984); conditions: 1 μM; Run 1, Run 2
# JAK2 = JAK2 (Homo sapiens, UniProt O60674); conditions: 1 μM; Run 1, Run 2
# Chain of JAK2 (O60674 whole entry): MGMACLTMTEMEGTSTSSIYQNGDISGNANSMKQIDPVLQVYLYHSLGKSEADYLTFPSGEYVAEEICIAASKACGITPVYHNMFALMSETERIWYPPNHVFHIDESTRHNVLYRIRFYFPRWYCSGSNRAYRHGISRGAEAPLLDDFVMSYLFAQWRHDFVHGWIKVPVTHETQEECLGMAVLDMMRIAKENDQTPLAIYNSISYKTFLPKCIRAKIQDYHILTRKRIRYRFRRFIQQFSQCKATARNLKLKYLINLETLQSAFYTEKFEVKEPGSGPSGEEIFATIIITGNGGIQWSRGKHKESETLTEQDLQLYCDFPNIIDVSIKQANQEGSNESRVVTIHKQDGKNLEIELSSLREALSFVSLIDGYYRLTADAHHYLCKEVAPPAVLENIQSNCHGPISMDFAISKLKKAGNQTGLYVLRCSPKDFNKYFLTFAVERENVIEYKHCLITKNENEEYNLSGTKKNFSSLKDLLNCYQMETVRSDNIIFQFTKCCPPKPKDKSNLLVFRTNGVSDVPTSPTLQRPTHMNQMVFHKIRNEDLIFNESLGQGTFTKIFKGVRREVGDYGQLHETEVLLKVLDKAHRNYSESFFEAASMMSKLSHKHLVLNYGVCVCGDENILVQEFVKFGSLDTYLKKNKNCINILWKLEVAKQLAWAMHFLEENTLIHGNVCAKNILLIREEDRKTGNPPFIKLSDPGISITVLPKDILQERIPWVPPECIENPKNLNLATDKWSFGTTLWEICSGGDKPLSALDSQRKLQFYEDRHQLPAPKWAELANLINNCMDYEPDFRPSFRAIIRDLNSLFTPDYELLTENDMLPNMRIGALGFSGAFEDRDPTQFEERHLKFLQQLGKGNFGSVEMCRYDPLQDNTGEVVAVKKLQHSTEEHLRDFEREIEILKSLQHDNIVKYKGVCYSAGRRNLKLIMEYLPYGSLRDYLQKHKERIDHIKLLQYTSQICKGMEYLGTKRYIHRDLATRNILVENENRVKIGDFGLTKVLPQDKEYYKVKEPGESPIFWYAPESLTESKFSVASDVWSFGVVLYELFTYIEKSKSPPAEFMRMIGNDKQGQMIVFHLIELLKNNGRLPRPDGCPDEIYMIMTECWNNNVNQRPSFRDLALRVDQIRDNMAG
# MEKK6 = molecular target: T1, MEKK6 (Homo sapiens, UniProt O95382); conditions: 1 μM; Run 1, Run 2
# T1 sequence (O95382 1-1288): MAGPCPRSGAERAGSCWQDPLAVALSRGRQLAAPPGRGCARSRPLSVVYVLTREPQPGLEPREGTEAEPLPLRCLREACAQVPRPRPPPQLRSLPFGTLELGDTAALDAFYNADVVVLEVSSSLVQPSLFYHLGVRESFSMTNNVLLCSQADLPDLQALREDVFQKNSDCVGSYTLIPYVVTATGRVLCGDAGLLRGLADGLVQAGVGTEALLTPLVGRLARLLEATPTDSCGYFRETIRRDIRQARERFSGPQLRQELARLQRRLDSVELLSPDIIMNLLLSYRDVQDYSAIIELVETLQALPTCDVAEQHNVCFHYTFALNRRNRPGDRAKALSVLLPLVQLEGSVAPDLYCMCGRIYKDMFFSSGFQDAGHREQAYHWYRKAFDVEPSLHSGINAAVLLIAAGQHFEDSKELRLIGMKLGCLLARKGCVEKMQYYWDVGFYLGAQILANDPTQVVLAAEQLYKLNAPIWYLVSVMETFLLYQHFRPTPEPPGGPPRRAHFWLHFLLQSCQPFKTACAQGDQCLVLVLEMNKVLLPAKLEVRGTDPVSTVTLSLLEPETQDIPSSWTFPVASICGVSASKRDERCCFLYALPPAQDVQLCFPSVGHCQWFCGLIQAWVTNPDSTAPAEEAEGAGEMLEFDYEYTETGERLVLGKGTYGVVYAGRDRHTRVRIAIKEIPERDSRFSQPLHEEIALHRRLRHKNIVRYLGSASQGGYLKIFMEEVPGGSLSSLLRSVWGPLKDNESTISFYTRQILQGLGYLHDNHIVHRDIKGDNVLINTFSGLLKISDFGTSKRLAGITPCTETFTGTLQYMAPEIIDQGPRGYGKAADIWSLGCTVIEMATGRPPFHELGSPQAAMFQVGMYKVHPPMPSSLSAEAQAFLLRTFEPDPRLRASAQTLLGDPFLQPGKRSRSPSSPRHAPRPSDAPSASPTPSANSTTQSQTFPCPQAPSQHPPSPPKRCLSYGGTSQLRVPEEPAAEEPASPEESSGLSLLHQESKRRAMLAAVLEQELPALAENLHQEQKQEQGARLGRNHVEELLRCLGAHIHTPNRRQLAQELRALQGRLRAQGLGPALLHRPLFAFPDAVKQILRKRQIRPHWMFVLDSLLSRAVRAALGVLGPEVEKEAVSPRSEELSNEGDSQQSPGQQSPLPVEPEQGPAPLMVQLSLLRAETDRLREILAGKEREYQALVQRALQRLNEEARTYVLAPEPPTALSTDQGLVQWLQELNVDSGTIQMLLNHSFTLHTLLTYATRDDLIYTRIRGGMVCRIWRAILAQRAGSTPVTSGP
# CAMK1g = CAMK1g (Homo sapiens, UniProt Q96NX5); conditions: 1 μM; Run 1, Run 2
# Chain of CAMK1g (Q96NX5 whole entry): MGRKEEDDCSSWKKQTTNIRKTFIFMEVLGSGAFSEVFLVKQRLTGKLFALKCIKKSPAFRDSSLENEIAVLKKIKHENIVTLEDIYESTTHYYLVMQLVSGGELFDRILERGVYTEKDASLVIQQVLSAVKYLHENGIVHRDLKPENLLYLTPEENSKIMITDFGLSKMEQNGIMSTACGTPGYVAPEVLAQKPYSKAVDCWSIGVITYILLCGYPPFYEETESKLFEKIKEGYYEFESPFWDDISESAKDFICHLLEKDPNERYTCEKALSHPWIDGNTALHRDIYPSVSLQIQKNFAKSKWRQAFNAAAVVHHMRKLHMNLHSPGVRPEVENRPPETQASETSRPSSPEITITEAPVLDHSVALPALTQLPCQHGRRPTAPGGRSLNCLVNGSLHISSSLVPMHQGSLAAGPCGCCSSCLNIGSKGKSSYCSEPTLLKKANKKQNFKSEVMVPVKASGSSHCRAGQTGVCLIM
# GRK7 = molecular target: T2, GRK7 (Homo sapiens, UniProt Q8WTQ7); conditions: 1 μM; Run 1, Run 2
# T2 sequence (Q8WTQ7 1-553): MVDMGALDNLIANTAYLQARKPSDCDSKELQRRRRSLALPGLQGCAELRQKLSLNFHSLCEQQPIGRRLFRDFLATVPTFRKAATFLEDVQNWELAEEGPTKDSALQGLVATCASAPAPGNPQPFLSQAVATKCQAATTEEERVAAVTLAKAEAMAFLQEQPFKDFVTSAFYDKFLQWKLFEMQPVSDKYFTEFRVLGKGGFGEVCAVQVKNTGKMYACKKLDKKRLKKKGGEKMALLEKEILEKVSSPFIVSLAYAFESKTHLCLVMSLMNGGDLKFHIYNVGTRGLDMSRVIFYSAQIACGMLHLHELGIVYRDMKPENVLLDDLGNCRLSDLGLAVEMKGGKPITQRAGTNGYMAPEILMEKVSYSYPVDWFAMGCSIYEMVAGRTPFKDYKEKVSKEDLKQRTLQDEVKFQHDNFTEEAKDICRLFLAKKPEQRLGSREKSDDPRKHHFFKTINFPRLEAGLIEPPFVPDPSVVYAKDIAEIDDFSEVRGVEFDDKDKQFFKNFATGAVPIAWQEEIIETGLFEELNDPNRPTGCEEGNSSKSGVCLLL
# GRK3 = molecular target: T3, GRK3 (Homo sapiens, UniProt P35626); conditions: 1 μM; Run 1, Run 2
# T3 sequence (P35626 1-688): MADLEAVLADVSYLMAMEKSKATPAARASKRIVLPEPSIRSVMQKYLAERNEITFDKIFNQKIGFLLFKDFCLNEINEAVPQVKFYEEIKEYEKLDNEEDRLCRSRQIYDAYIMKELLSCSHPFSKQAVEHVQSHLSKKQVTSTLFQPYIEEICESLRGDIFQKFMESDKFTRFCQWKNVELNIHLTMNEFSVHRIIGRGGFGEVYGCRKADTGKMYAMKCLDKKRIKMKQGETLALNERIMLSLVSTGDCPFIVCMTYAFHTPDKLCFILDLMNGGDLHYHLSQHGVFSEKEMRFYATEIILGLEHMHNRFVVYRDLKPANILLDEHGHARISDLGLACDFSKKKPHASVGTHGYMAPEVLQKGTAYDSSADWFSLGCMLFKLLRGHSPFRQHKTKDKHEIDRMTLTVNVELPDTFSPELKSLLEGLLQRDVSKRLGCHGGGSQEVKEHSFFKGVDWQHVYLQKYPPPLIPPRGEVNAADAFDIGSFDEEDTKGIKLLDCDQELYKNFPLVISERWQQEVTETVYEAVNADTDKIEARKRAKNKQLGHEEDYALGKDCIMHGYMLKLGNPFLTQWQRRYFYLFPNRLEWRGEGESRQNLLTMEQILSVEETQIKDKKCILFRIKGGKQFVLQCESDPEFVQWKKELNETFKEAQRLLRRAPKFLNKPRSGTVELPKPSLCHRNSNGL
# TGFBR2 = molecular target: T4, TGFBR2 (Homo sapiens, UniProt P37173); test: 375-member kinase panel; assay type: biochemical; conditions: Run 1, Run 2; for % enzyme activity: 1 μM; for remaining activity at 1 µM: read-out: % enzyme activity, 1 μM
# T4 construct: purchased Reaction Biology Corporation
# T4 sequence (P37173 23-567): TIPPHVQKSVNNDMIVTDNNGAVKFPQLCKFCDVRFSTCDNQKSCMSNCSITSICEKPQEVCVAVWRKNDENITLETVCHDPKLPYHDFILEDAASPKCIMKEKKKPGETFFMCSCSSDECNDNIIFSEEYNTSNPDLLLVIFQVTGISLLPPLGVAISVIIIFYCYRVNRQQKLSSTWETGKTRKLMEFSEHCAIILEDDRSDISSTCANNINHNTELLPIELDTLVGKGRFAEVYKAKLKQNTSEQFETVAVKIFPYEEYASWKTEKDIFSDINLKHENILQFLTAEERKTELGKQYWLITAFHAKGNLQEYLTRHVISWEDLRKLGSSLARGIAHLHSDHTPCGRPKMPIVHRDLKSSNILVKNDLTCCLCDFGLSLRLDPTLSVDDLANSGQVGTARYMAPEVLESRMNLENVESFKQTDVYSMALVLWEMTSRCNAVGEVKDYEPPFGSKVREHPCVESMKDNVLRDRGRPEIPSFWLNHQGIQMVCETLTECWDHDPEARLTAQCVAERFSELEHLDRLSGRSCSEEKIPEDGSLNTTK
# JNK3 = JNK3 (Homo sapiens, UniProt P53779); test: biochemical; conditions: read-out: % enzyme activity, 1 μM; Run 1, Run 2
# Chain of JNK3 (P53779 whole entry): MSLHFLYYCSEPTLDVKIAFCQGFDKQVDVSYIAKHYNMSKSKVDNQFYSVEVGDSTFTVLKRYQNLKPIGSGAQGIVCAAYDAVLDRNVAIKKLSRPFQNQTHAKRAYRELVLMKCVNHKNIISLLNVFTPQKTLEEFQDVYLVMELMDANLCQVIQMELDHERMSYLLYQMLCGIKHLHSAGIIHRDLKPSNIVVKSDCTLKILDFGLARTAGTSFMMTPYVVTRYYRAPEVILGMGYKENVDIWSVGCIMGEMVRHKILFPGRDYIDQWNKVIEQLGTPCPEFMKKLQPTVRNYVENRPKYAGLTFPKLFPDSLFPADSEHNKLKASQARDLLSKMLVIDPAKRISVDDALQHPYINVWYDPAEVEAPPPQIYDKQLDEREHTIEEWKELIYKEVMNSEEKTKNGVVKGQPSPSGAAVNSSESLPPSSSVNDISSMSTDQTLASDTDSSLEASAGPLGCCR
# CK1a1 = CK1a1 (Homo sapiens, UniProt P48729); test: biochemical; conditions: read-out: % enzyme activity, 1 μM; Run 1, Run 2
# Chain of CK1a1 (P48729 whole entry): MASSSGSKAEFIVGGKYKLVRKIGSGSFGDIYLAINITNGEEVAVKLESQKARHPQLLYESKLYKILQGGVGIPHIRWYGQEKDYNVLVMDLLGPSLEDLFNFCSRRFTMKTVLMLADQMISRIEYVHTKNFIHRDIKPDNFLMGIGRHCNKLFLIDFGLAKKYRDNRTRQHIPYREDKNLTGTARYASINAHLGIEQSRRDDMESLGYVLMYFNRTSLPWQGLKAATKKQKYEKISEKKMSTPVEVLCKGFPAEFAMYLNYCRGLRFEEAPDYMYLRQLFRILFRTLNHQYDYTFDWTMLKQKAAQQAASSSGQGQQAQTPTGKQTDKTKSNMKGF
# Chain of CDK17/cyclin Y (PCTK2) (Q00537 whole entry): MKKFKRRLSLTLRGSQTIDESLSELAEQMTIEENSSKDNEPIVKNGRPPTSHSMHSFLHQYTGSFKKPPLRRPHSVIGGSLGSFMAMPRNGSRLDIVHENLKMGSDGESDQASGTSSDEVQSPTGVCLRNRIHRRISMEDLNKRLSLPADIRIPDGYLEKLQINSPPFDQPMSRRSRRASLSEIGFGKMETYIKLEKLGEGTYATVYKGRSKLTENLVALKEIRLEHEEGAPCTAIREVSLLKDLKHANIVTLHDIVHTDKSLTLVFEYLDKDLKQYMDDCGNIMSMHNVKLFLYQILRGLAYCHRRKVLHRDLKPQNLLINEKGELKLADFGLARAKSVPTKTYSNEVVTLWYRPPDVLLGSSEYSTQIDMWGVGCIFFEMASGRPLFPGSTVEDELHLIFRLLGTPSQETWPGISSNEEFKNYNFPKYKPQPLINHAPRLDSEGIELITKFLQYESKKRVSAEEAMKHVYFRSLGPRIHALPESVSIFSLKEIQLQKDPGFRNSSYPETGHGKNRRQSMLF
# Chain of CDK17/cyclin Y (PCTK2) (Q8ND76 whole entry partner): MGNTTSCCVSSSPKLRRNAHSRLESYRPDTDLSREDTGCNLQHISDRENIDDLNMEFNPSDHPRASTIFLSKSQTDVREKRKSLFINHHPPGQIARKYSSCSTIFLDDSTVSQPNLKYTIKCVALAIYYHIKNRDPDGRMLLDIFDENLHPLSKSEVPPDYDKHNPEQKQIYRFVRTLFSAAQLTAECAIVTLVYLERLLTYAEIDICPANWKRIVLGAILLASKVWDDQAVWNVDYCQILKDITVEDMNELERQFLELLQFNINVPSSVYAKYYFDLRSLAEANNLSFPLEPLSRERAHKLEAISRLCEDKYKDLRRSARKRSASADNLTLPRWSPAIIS
# Chain of JNK2 (P45984 whole entry): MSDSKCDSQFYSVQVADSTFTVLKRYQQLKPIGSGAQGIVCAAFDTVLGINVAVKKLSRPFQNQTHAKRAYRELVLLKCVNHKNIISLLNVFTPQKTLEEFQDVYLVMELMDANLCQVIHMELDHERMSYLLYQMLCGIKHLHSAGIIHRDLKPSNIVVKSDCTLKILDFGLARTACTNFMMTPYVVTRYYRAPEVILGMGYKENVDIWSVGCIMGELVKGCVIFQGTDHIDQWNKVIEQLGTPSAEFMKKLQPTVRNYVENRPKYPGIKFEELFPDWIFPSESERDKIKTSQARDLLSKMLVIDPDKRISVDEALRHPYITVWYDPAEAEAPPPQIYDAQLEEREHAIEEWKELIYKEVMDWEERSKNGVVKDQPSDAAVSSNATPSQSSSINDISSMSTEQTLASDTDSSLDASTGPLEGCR
SMILES,remaining activity at 1 µM (CDK17/cyclin Y (PCTK2)) [%],% enzyme activity (JNK2) [%],% enzyme activity (JAK2) [%],% enzyme activity (MEKK6) [%],% enzyme activity (CAMK1g) [%],% enzyme activity (GRK7) [%],% enzyme activity (GRK3) [%],% enzyme activity (TGFBR2) [%],remaining activity at 1 µM (TGFBR2) [%],remaining activity at 1 µM (JNK3) [%],remaining activity at 1 µM (CK1a1) [%]
"COc1cc(-c2cncc(-c3ccc(N4CCN(C)CC4)cc3)c2C)cc(F)c1C(N)=O [Compound 26a, 2-Fluoro-6-methoxy-4-(4-methyl-5-(4-(4-methylpiperazin-1-yl)phenyl)pyridin-3-yl)benzamide]",96.1,91.99,92.09,96.75,99.10,93.81,94.07,97.44,103,96.4,96.1
"COc1cc(-c2cncc(-c3ccc(N4C[C@@H](C)N(C)[C@@H](C)C4)cc3)c2C)cc(F)c1C(N)=O [Compound 26c, 2-Fluoro-6-methoxy-4-(4-methyl-5-(4-((3R,5S)-3,4,5-trimethylpiperazin-1-yl)phenyl)pyridin-3-yl)benzamide]",101,94.14,88.17,95.16,107.66,91.35,95.20,105.33,106,104,100
